{"source": "patent US20100226888A1", "about": "“Ethanol Enhances the Complete Replication of Hepatitis C Virus: the Role of Acetaldehyde” (priority 2009, published 2010)", "key": {"JFH1 HCV (genotype 2a)": {"test_system": "JFH1 HCV (genotype 2a)", "type": "cell-based, hepatitis C virus", "details": "for intracellular JFH1 HCV RNA levels: 48 hrs"}, "[1]": {"test_system": "SgJFH1-Luc subgenomic HCV replicon (genotype 2a)", "type": "cell-based, hepatitis C virus", "source_text": "(§1) The genotype 2a HCV constructs, pJFH1 (produces infectious virus particles), replicative-null pJFH1-GND, and subgenomic pSgJFH1-Luc (contains a luciferase reporter gene), are described elsewhere (23, 24). Subgenomic HCV replicons are bicistronic constructs that express only the nonstructural proteins of HCV under the control of encephalocarditis virus IRES; neomycin resistance or firefly luciferase gene is under the control of the HCV IRES (15, 22, 24). These replicons support HCV RNA replication but no virus is formed in cell culture. Huh7 cell clones (SgPC2 cells, Clone B) supporting continuous replication of subgenomic HCV replicon of genotype 1b (Con1 sequence) were also used (17, 22).\nAfter various treatments, SgJFH1 Luc RNA-transfected cells were lysed with 1× Reporter Lysis Buffer, and the luciferase activity was determined using Luciferase Reporter Assay Kit (Promega Corp.) (24). Luciferase activities were normalized by total protein content, determined with bicinchoninic acid (BCA) assay kit from Pierce.\nTo test whether the JFH1 RNA replication was also affected by ethanol, Huh7 cells were transfected with JFH1 SgJFH1-Luc RNA and exposed the cells to ethanol for 48 hours. Then, HCV replication was monitored by measuring the firefly luciferase activity (24)."}, "intracellular GSH": {"test_system": "intracellular GSH", "experiment": "Intracellular GSH content in Huh7 cells", "type": "cell-based, human", "source_text": "Hepatic ethanol, particularly CYP2E1-mediated, metabolism is known to generate ROS (31). […] First, to examine the effects of endogenously generated ROS, L-buthionine S,R-sulfoximine (BSO) was used. BSO depletes glutathione (GSH), a major endogenous antioxidant, by inhibiting its de novo synthesis and therefore, would amplify the effects of endogenous ROS, generated during normal cellular metabolism and in response to HCV (5). BSO decreases intracellular GSH content by approximately 80±12% in Huh7 cells (P<0.05)."}, "JFH1 virus": {"test_system": "JFH1 virus", "experiment": "HCV RNA in naive Huh7 or Huh7.5 cells inoculated with JFH1 virus-containing medium", "type": "cell-based, hepatitis C virus", "protocol": "(§2) The in vitro transcription, and transfection of HCV RNA, and Huh7 human hepatoma cell culture were performed as previously described (17). For experiments involving stable clones, cells were cultured in medium supplemented with 0.4-0.5 mg/mL G418, and G418 was removed from cell culture medium one day prior to cell treatments, which were performed as described in Results. For the in vitro infectivity assays, 2 ml of the extracellular medium from JFH1 RNA-transfected cells was used to inoculate naive Huh7 or Huh7.5 cells with 3 ml of fresh medium, as described (23, 25). Treatments were initiated 24 hours after infection and the cells were harvested after another 24 or 48 hrs.\nThe total intracellular RNA was obtained from cells using Trizol (Invitrogen). To obtain extracellular HCV RNA, cell culture medium samples were first treated with RNase A (100 μg/ml) for 30 min at room temperature, then RNA was extracted using Trizol LS and glycogen as a carrier. HCV RNA was quantified by qRT-PCR as described (17, 23). For JFH1, the primer sequences were 5′ […] 3′ (nt 146 to 164; forward, SEQ ID NO.: 1), and 5′ […] 3′ (nt 277 to 295; reverse, SEQ ID NO.: 2), and the sequence of the fluorogenic probe, labeled with 6-FAM and TAMRA (Biosearch Technologies, Inc.), was 5′ […] 3′ (nt 168 to 188, SEQ ID NO.: 3). The primer and probe sequences for qRT-PCR analysis of Con1 RNA's were described previously (17). Standard curves were generated using in vitro-transcribed HCV RNA's. Intracellular HCV RNA levels were normalized by 18 S rRNA or GAPDH mRNA."}, "[2]": {"test_system": "Con1 subgenomic HCV replicon (genotype 1b)", "experiment": "Con1 subgenomic replicon HCV RNA in SgPC2 cells (Northern blot)", "type": "cell-based, hepatitis C virus", "details": "0.1 to 1% ethanol, 24 hrs", "source_text": "as §1, §2\n(§3) Intracellular RNA extraction and northern blots were carried out, as described (16, 17). DNA probes were prepared from nucleotides (“nt.”) 4128-8273 or 358-2816 of JFH1, generated with ScaI and ApaL I, respectively, or nt. 3669 to 6016 of the Con1 subgenomic replicons. Images were quantified by densitometry, using Optiquant Cyclone 4.00 (Perkin Elmer), and data were normalized by glyceraldehyde 3-phosphate dehydrogenase (GAPDH) mRNA content."}, "[3]": {"test_system": "Con1 HCV subgenomic replicon", "experiment": "Con1 subgenomic replicon HCV RNA in Clone B cells", "type": "cell-based, hepatitis C virus", "details": "24 hrs, response compared with SgPC2 cells", "source_text": "as §1, §3"}, "[4]": {"test_system": "HCV RNA replication complex (Con1 strain)", "details": "cells treated with ethanol for 5 hrs", "protocol": "(§4) In vitro replication assay was carried out according to the modified method of Ali et al., as previously described (16, 17, 26). Briefly, cytoplasmic lysates were prepared, and the replication was allowed to proceed for 1 hr at 30° C. in the presence of α-^32P-CTP and actinomycin D. Then, RNA products were analyzed on a 1% formaldehyde agarose gel, which was subsequently analyzed, using Optiquant Cyclone 4.00 (Perkin Elmer).\n(§5) JFH1-transfected cells were exposed to ethanol for 5 hrs and then, the cytoplasmic lysates, containing the HCV replication complex, were isolated. Then, the in vitro RNA replication assay was performed in the presence of α-^32P-labeled CTP and actinomycin D, as previously described (17). JFH1 GND cell lysates were used as a negative control."}, "[5]": {"test_system": "HCV RNA replication complex (JFH1)", "protocol": "as §4, §5"}, "HCV IRES": {"test_system": "HCV IRES", "details": "ethanol, data not shown", "protocol": "as §5"}, "CYP2E1": {"test_system": "CYP2E1", "details": "daily 0.2% (v/v) ethanol for 48 hrs, JFH1 cells", "source_text": "Cells were sonicated in Laemmli buffer, and proteins were separated on 7-20% Tris-glycine gel (Invitrogen) or 12.5% SDS-polyacrylamide gel and western blotted, using mouse monoclonal anti-NS5A (Biodesign, Inc.), goat anti-actin, and the corresponding horseradish peroxidase-conjugated secondary antibodies (Santa Cruz Laboratories) with an ECL Plus kit (Amersham Biosciences). Images were obtained and quantified, using 152000R (Kodak)."}, "NADH/NAD+ ratio": {"test_system": "NADH/NAD+ ratio", "experiment": "NADH/NAD+ enzymatic NADH recycling assay", "type": "cell-based, human", "quoted_text": "NADH and NAD+ levels were determined by enzymatic NADH recycling assay, using the NAD+/NADH Quantification Kit from Biovision, per manufacturers recommendations with an optional filtration step that used Microcon YM-10 (Millipore). […] The data were normalized by total protein content, determined with BCA assay kit from Pierce."}, "[6]": {"test_system": "Huh7 human hepatoma cells", "details": "data not shown", "protocol": "NADH and NAD+ levels were determined by enzymatic NADH recycling assay, using the NAD+/NADH Quantification Kit from Biovision, per manufacturers recommendations with an optional filtration step that used Microcon YM-10 (Millipore). Total ATP content was measured using Somatic Cell ATP Assay Kit from Sigma-Aldrich. The data were normalized by total protein content, determined with BCA assay kit from Pierce.\nTo examine whether ethanol increased the complete replication of HCV, positive-sense genomic JFH1 RNA was produced by in vitro transcription, using T7 RNA polymerase, and transfected into Huh7 human hepatoma cells. Then, the transfected cells were exposed to 0-1.0% (v/v; 0-172 mM) ethanol once daily with a change of medium each day for 48 hrs. Then, the cells and the cell culture medium were harvested and analyzed for intracellular and RNase A-resistant extracellular HCV RNA's by a combination of Northern blots and qRT-PCR."}, "[7]": {"test_system": "intracellular cholesterol", "experiment": "Total intracellular cholesterol content in SgPC2 cells", "type": "cell-based, human", "details": "24 h", "protocol": "FIG. 7. […] SgPC2 cells were treated for 24 h with (A and B) 0.2% ethanol, 5 μM acetaldehyde, 0.2% isopropyl alcohol, 2 mM acetone, 5 μM acetate±30 min pretreatment with (A) 5 μM lovastatin, 5 μM fluvastatin, (B) 5 μg/ml TOFA, 5 μg/ml cerulenin, or with (C) 2 mM β-mercaptopropionic acid (β-MPA). Then, HCV RNA levels were monitored by Northern blot and quantified by densitometry (n=3). D, SgPC2 cells, treated for 24 h with ethanol, acetaldehyde, acetone, and acetate±lovastatin, were monitored for cholesterol levels (n=3). Lovastatin was activated, as described, before use (29). *, indicates statistically significant difference for indicated sample sizes (p<0.05)"}}, "note": "Like-named read-outs stand apart in the source and are kept apart here.", "data": [{"smiles": "CCCCS(=N)(=O)CCC(N)C(=O)O", "note": "[BSO, L-buthionine S,R-sulfoximine]", "values": [{"measurement": "extracellular JFH1 RNA levels", "setting": "JFH1 HCV (genotype 2a); BSO, 24 hrs", "result": "significantly decreased"}, {"measurement": "intracellular JFH1 RNA levels", "setting": "JFH1 HCV (genotype 2a); BSO, 24 hrs", "result": "significantly decreased"}, {"measurement": "subgenomic JFH1 RNA replication", "setting": "[1]; BSO alone or with 0.25 mU/mL GO + glucose, 24 hr", "result": "suppressed"}, {"measurement": "decrease of intracellular GSH content", "setting": "intracellular GSH", "result": "approximately 80±12%"}]}, {"smiles": "CCO", "note": "[ethanol]", "values": [{"measurement": "intracellular JFH1 HCV RNA levels", "setting": "JFH1 HCV (genotype 2a); 0.2% (v/v) ethanol once daily", "result": "237±40 % of untreated controls"}, {"measurement": "intracellular JFH1 HCV RNA levels", "setting": "JFH1 HCV (genotype 2a); 0.5% (v/v) ethanol once daily", "result": "305±61 % of untreated controls"}, {"measurement": "extracellular HCV RNA (virus secretion)", "setting": "JFH1 HCV (genotype 2a); ethanol treatment 48 hrs, RNase A-resistant RNA in medium", "result": "significantly elevated"}, {"measurement": "HCV replication in RIG-1-defective Huh7.5 cells", "setting": "JFH1 virus; FIG. 5, also data not shown", "result": "increase"}, {"measurement": "HCV RNA in Huh7 cells infected with cell culture-generated JFH1 virion", "setting": "JFH1 virus; ethanol treatment 48 hrs", "result": "increased"}, {"measurement": "luciferase activity (JFH1 RNA genome replication)", "setting": "[1]", "result": "increased"}, {"measurement": "genotype 1b HCV RNA", "setting": "[2]", "result": "significant increases"}, {"measurement": "HCV RNA in Clone B cells", "setting": "[3]", "result": "responded similarly"}, {"measurement": "in vitro replication rate of Con1 strain", "setting": "[4]", "result": "accelerated"}, {"measurement": "rate of HCV RNA replication in vitro", "setting": "[5]; cells exposed to ethanol for 5 hrs", "result": "significantly increased"}, {"measurement": "rate of HCV RNA replication in vitro", "setting": "[5]; cells exposed to ethanol for ½, 1, or 3 hrs, data not shown", "result": "no significant increase"}, {"measurement": "HCV IRES activity", "setting": "HCV IRES", "result": "did not increase"}, {"measurement": "CYP2E1 expression", "setting": "CYP2E1", "result": "enhanced"}, {"measurement": "NADH/NAD+ ratio", "setting": "NADH/NAD+ ratio; SgPC2 cells, 3 h, 0.2% ethanol, 5 μM acetaldehyde, 5 μM acetate, 0.2% isopropyl alcohol, 2 mM acetone, 25 mM tert-butanol", "result": "increases"}, {"measurement": "increase of NADH/NAD+ ratio", "setting": "NADH/NAD+ ratio; ethanol, within 3 hrs", "result": "76.2±6.1", "unit": "%"}, {"measurement": "overall ATP levels", "setting": "[6]", "result": "not significantly perturbed"}, {"measurement": "cytotoxicity", "setting": "[6]; ethanol concentrations used, cell morphology and cellular ATP content", "result": "did not induce any cytotoxicity"}, {"measurement": "total intracellular cholesterol content", "setting": "[7]", "result": "increased"}]}]}
